Laboratory results from ChEMBL document CHEMBL4627412.

Assays:
[1] = biological target: Protease (Human immunodeficiency virus 1, UniProt Q9YQ12, I84V); test: Inhibition of HIV1 NL4-3 protease I84V mutant expressed in Escherichia coli TAP-106 cells using EDANS/DABCYL-labelled 10-amino acid containing protease cleavage site as substrate preincubated for 1 hr followed by substrate addition and measured for 60 mins by FRET assay
[2] = biological target: Human immunodeficiency virus type 1 protease (Human immunodeficiency virus 1, UniProt Q72874); test: Inhibition of HIV1 NL4-3 protease expressed in Escherichia coli TAP-106 cells using EDANS/DABCYL-labelled 10-amino acid containing protease cleavage site as substrate preincubated for 1 hr followed by substrate addition and measured for 60 mins by FRET assay
[3] = biological target: Protease (Human immunodeficiency virus 1, UniProt Q9YQ12, A71V/I50V); test: Inhibition of HIV1 NL4-3 protease I50V/A71V mutant expressed in Escherichia coli TAP-106 cells using EDANS/DABCYL-labelled 10-amino acid containing protease cleavage site as substrate preincubated for 1 hr followed by substrate addition and measured for 60 mins by FRET assay
[4] = tested on: Human immunodeficiency virus 1; test: Antiviral activity against wild-type HIV1 NL4-3 infected in human TZM-bl cells infected with supernatants from virus-infected human 293T cells treated with compound for 18 hrs assessed as reduction in viral replication by luciferase assay; type: functional, organism-based; conditions: Human immunodeficiency virus 1, NL4-3, 18 h

Protease (Human immunodeficiency virus 1, UniProt Q9YQ12, I84V), sequence (Q9YQ12 entry or part of it I84V): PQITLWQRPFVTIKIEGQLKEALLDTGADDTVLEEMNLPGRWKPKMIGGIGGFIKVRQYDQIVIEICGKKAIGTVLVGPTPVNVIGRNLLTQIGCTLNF
Protease (Human immunodeficiency virus 1, UniProt Q9YQ12, A71V/I50V), sequence (Q9YQ12 entry or part of it A71V/I50V): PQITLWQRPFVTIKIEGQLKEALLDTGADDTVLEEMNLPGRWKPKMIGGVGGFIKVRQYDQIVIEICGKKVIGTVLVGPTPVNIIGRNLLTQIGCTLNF

SMILES | Ki [1] | Ki [2] | Ki [3] | EC50 [4]
COC(=O)N[C@H](C(=O)N[C@@H](Cc1ccccc1)C[C@H](O)[C@H](Cc1ccccc1)NC(=O)O[C@H]1CO[C@H]2OCC[C@H]21)C1CCCC1 | 1.18 nM | 0.161 nM | 1.39 nM | –
Cc1cccc(C)c1OCC(=O)N[C@@H](Cc1ccccc1)[C@@H](O)C[C@H](Cc1ccccc1)NC(=O)[C@H](C(C)C)N1CCCNC1=O [LOPINAVIR] | – | – | – | 12 nM
COC(=O)NC1(C(=O)N[C@@H](Cc2ccccc2)C[C@H](O)[C@H](Cc2ccccc2)NC(=O)O[C@H]2CO[C@H]3OCC[C@H]32)CCCC1 | 191 nM | 7.3 nM | 40 nM | –
COC(=O)N[C@H](C(=O)N[C@@H](Cc1ccccc1)[C@@H](O)C[C@H](Cc1ccccc1)NC(=O)O[C@H]1CO[C@H]2OCC[C@H]21)C1CCCC1 | 0.71 nM | 0.235 nM | 2.35 nM | –
Cc1cccc(C)c1OCC(=O)N[C@@H](Cc1ccccc1)[C@@H](O)C[C@H](Cc1ccccc1)NC(=O)O[C@H]1CO[C@H]2OCC[C@H]21 | 0.069 nM | 0.017 nM | 0.072 nM | 38 nM
Cc1cccc(C)c1OCC(=O)N[C@@H](Cc1ccccc1)C[C@H](O)[C@H](Cc1ccccc1)NC(=O)O[C@H]1CO[C@H]2OCC[C@H]21 | 0.259 nM | 0.037 nM | – | 16 nM
COC(=O)N[C@H](C(=O)N[C@@H](Cc1ccccc1)[C@@H](O)C[C@H](Cc1ccccc1)NC(=O)O[C@H]1CO[C@H]2OCC[C@H]21)C1CC1 | 1.82 nM | 0.571 nM | 1.66 nM | –
COC(=O)NC1(C(=O)N[C@@H](Cc2ccccc2)[C@@H](O)C[C@H](Cc2ccccc2)NC(=O)O[C@H]2CO[C@H]3OCC[C@H]32)CCCC1 | 236 nM | 46 nM | 484 nM | –
CC[C@@H](C)[C@H](NC(=O)OC)C(=O)N[C@@H](Cc1ccccc1)[C@@H](O)C[C@H](Cc1ccccc1)NC(=O)O[C@H]1CO[C@H]2OCC[C@H]21 | 0.091 nM | 0.027 nM | 0.029 nM | 240 nM
COC(=O)N[C@@H](C)C(=O)N[C@@H](Cc1ccccc1)[C@@H](O)C[C@H](Cc1ccccc1)NC(=O)O[C@H]1CO[C@H]2OCC[C@H]21 | 0.069 nM | 0.019 nM | 0.073 nM | 66 nM
CC[C@H](C)[C@H](NC(=O)OC)C(=O)N[C@@H](Cc1ccccc1)[C@@H](O)C[C@H](Cc1ccccc1)NC(=O)O[C@H]1CO[C@H]2OCC[C@H]21 | 0.198 nM | 0.055 nM | 0.56 nM | 70 nM
COC(=O)N[C@H](C(=O)N[C@@H](Cc1ccccc1)C[C@H](O)[C@H](Cc1ccccc1)NC(=O)O[C@H]1CO[C@H]2OCC[C@H]21)C(C)(C)C | 0.372 nM | 0.013 nM | 0.072 nM | 39 nM
COC(=O)N[C@H](C(=O)N[C@@H](Cc1ccccc1)[C@@H](O)C[C@H](Cc1ccccc1)NC(=O)O[C@H]1CO[C@H]2OCC[C@H]21)C(C)C | 0.302 nM | 0.074 nM | 0.295 nM | 55 nM
COC(=O)N[C@H](C(=O)N[C@@H](Cc1ccccc1)[C@@H](O)C[C@H](Cc1ccccc1)NC(=O)O[C@H]1CO[C@H]2OCC[C@H]21)C(C)(C)C | 0.208 nM | 0.018 nM | 0.273 nM | 11 nM
